Experimental data reported in patent US9815796B2 (Merck Sharp & Dohme Corp., priority 2013, dated 2017).
Where two headings read alike, the source gives them in different places.

Columns and labels:
Rhesus PDE2A3 = Rhesus PDE2A3 (Macaca mulatta, UniProt B3VTJ2); experiment: PDE2 fluorescence polarization (IMAP FP) inhibition assay, rhesus enzyme; type: biochemical, rhesus macaque
How it was run: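 Rhesus PDE2A3 came from lysate of transiently transfected AD293 cells, diluted to give 20% substrate conversion. Substrate was 50 nM FAM-cAMP with 1 uM cGMP activator in Tris pH 7.2/MgCl2 buffer, run 60 min at room temperature over 10-point 3-fold dilutions in 1% DMSO. Read-out was IMAP fluorescence polarization (mP) after ≥1 h binding.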

human PDE2A1 = human PDE2A1 (Homo sapiens (Human), UniProt O00408); experiment: IMAP FP PDE selectivity panel, human PDE2A1; type: biochemical
Chain of human PDE2A1 (O00408 other isoform, or with tags, fused parts or gaps): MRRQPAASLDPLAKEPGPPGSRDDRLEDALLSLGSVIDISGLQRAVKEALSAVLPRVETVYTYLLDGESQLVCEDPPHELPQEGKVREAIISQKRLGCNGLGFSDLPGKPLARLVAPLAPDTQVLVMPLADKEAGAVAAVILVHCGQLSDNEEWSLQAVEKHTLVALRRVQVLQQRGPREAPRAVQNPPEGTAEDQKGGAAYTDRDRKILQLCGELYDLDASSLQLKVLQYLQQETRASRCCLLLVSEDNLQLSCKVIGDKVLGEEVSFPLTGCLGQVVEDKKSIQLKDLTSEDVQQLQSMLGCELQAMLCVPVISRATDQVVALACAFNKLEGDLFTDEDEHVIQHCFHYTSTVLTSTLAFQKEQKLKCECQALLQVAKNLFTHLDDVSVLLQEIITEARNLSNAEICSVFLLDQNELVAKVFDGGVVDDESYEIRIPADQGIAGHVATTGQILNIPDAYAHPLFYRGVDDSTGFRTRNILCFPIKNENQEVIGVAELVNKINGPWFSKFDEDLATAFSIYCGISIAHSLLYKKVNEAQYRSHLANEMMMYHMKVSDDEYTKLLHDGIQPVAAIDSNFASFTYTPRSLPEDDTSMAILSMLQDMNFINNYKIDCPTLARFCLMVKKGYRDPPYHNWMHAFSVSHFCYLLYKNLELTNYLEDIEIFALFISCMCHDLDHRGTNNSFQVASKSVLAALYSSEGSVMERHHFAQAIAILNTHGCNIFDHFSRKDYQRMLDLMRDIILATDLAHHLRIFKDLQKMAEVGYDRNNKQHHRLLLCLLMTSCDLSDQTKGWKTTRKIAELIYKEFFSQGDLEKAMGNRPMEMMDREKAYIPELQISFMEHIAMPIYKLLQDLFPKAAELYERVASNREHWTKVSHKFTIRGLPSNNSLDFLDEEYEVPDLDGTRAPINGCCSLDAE
How it was run: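 GST-tagged human PDE2A1 expressed in insect cells, run at room temperature for 60 min with 50 nM FAM-cAMP containing 1000 nM cGMP, pH 7.2 Tris/MgCl2 buffer. IMAP fluorescence polarization read after binding step.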

[1] = Rhesus PDE2, Lab A, read-out: Rhesus PDE2 Ki (nM) - Lab A
[2] = Human PDE2, Lab A, read-out: Human PDE2 Ki (nM) - Lab A
[3] = Rhesus PDE2, Lab B, read-out: Rhesus PDE2 Ki (nM) - Lab B
[4] = Human PDE2, Lab B, read-out: Human PDE2 Ki (nM) - Lab B

Chain of Rhesus PDE2A3 (B3VTJ2 1-941): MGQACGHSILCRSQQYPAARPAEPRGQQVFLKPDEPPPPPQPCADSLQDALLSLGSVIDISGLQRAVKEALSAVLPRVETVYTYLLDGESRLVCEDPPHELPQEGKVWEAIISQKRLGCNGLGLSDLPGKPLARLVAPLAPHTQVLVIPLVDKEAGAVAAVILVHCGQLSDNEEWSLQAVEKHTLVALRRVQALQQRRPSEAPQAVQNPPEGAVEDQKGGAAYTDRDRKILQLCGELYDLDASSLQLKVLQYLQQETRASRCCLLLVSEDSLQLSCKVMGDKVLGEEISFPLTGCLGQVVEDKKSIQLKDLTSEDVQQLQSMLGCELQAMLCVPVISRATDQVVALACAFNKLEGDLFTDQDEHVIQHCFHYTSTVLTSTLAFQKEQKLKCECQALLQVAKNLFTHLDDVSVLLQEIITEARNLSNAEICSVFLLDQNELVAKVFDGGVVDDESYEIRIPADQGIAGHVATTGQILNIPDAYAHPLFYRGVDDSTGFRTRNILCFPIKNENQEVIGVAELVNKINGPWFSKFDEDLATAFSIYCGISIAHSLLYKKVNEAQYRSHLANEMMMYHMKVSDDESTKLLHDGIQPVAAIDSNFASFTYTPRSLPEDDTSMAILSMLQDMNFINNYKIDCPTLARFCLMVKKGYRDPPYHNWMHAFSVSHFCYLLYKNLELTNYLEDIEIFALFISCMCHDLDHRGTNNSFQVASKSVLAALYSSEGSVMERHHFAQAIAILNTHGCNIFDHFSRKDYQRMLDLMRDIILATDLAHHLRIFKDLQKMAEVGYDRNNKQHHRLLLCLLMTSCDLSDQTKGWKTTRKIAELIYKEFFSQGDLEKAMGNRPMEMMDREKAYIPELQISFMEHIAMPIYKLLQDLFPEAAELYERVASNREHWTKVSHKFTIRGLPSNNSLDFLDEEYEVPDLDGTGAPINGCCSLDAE

Ki (Rhesus PDE2A3; [1]) | Ki (human PDE2A1; [2]) | Ki (Rhesus PDE2A3; [3]) | Ki (human PDE2A1; [4]) | SMILES
5 nM | 2.4 nM | – | – | O=C(N[C@@H](c1ccc(SC(F)(F)F)cc1)C1CC1)c1cc(=O)[nH]c(C2CC2)n1 [Example 214, 2-cyclopropyl-N-[(R)-cyclopropyl{4-[(trifluoromethyl)sulfanyl]phenyl}methyl]-6-oxo-1,6-dihydropyrimidine-4-carboxamide]
29 nM | 14 nM | – | – | C[C@@H](NC(=O)c1cc(=O)[nH]c(C2CC2)n1)c1ccc(CC(F)(F)F)cc1 [Example 217, 2-cyclopropyl-6-oxo-N-{(1R)-1-[4-(2,2,2-trifluoroethyl)phenyl]ethyl}-1,6-dihydropyrimidine-4-carboxamide]
104 nM | 56 nM | – | – | C[C@@H](NC(=O)c1cc(=O)[nH]c(C2CC2)n1)c1cc(F)c(C(F)(F)F)c(F)c1 [Example 218, 2-cyclopropyl-N-{(1R)-1-[3,5-difluoro-4-(trifluoromethyl)phenyl]ethyl}-6-oxo-1,6-dihydropyrimidine-4-carboxamide]
43 nM | 31 nM | – | – | COc1cc(C(F)(F)F)ccc1[C@@H](C)NC(=O)c1cc(=O)[nH]c(C2CC2)n1 [Example 219, 2-cyclopropyl-N-{(1R)-1-[2-methoxy-4-(trifluoromethyl)phenyl]ethyl}-6-oxo-1,6-dihydropyrimidine-4-carboxamide]
89 nM | 45 nM | – | – | CC(C)(NC(=O)c1cc(=O)[nH]c(C2CC2)n1)c1ccc(SC(F)(F)F)cc1 [Example 222, 2-cyclopropyl-N-(1-methyl-1-{4-[(trifluoromethyl)sulfanyl]phenyl}ethyl)-6-oxo-1,6-dihydropyrimidine-4-carboxamide]
40 nM | 20 nM | – | – | C[C@@H](NC(=O)c1cc(=O)[nH]c(C2CC2)n1)c1ccc2ccccc2c1 [Example 224, 2-cyclopropyl-N-[(1R)-1-naphthalen-2-ylethyl]-6-oxo-1,6-dihydropyrimidine-4-carboxamide]
8.3 nM | 4.6 nM | – | – | CC[C@@H](NC(=O)c1cc(=O)[nH]c(C2CC2)n1)c1ccc(OC(F)(F)F)cc1 [Example 225, 2-cyclopropyl-6-oxo-N-{(1R)-1-[4-(trifluoromethoxy)phenyl]propyl}-1,6-dihydropyrimidine-4-carboxamide]
12 nM | 6.5 nM | – | – | C[C@@H](NC(=O)c1cc(=O)[nH]c(C2CC2)n1)c1ccc(S(F)(F)(F)(F)F)cc1 [Example 227, 2-cyclopropyl-6-oxo-N-{(1R)-1-[4-(pentafluoro-λ^6-sulfanyl)phenyl]ethyl}-1,6-dihydropyrimidine-4-carboxamide]
25 nM | 11 nM | – | – | COc1cc(OC(F)(F)F)ccc1C(C)NC(=O)c1cc(=O)[nH]c(C2CC2)n1 (centres unmarked) [Example 230, 2-cyclopropyl-N-{1-[2-methoxy-4-(trifluoromethoxy)phenyl]ethyl}-6-oxo-1,6-dihydropyrimidine-4-carboxamide]
39 nM | 23 nM | – | – | Cc1cc([C@@H](C)NC(=O)c2cc(=O)[nH]c(C3CC3)n2)ccc1C(F)(F)F [Example 231, 2-cyclopropyl-N-{(1R)-1-[3-methyl-4-(trifluoromethyl)phenyl]ethyl}-6-oxo-1,6-dihydropyrimidine-4-carboxamide]
29 nM | 17 nM | – | – | C[C@@H](NC(=O)c1cc(=O)[nH]c(C2CC2)n1)c1ccc(C(F)(F)F)c(Cl)c1 [Example 232, N-{(1R)-1-[3-chloro-4-(trifluoromethyl)phenyl]ethyl}-2-cyclopropyl-6-oxo-1,6-dihydropyrimidine-4-carboxamide]
124 nM | 78 nM | – | – | CC(NC(=O)c1cc(=O)[nH]c(C2CC2)n1)c1ccc(C(F)(F)F)cc1Cl (centres unmarked) [Example 233, N-{1-[2-chloro-4-(trifluoromethyl)phenyl]ethyl}-2-cydopropyl-6-oxo-1,6-dihydropyrimidine-4-carboxamide]
20 nM | 18 nM | – | – | C[C@@H](NC(=O)c1cc(=O)[nH]c(C2CC2)n1)c1ccc(C(F)(F)F)c(F)c1 [Example 234, 2-cyclopropyl-N-{(1R)-1-[3-fluoro-4-(trifluoromethyl)phenyl]ethyl}-6-oxo-1,6-dihydropyrimidine-4-carboxamide]
4.3 nM | 5.5 nM | – | – | CC[C@@H](NC(=O)c1cc(=O)[nH]c(C2CC2)n1)c1ccc(SC(F)(F)F)cc1 [Example 236, 2-cyclopropyl-6-oxo-N-[(1R)-1-{4-[(trifluoromethyl)sulfanyl]phenyl}propyl]-1,6-dihydropyrimidine-4-carboxamide]
61 nM | 35 nM | – | – | C[C@@H](NC(=O)c1cc(=O)[nH]c(C2CC2)n1)c1ccc(C(F)(F)F)cc1F [Example 237, 2-cyclopropyl-N-{(1R)-1-[2-fluoro-4-(trifluoromethyl)phenyl]ethyl}-6-oxo-1,6-dihydropyrimidine-4-carboxamide]
14 nM | 8.8 nM | – | – | Cc1nc(C(=O)N[C@@H](c2ccc(C(F)(F)F)c(F)c2)C(C)C)cc(=O)[nH]1 [Example 240, N-{(1R)-1-[3-fluoro-4-(trifluoromethyl)phenyl]-2-methylpropyl}-2-methyl-6-oxo-1,6-dihydropyrimidine-4-carboxamide]
5 nM | – | 10 nM | 9.2 nM | CC[C@@H](NC(=O)c1cc(=O)[nH]c(C2CC2)n1)c1ccc(S(F)(F)(F)(F)F)cc1 [Example 242, 2-cyclopropyl-6-oxo-N-{(1R)-1-[4-(pentafluoro-λ^6-sulfanyl)phenyl]propyl}-1,6-dihydropyrimidine-4-carboxamide]
3.6 nM | – | 6.7 nM | 5.8 nM | C[C@@H](NC(=O)c1cc(=O)[nH]c(C2CC2)n1)c1ccc(SC(F)(F)F)c(F)c1 [Example 243, 2-cyclopropyl-N-[(1R)-1-{3-fluoro-4-[(trifluoromethyl)sulfanyl]phenyl}ethyl]-6-oxo-1,6-dihydropyrimidine-4-carboxamide]
0.99 nM | – | 2.4 nM | 3 nM | CC(C)[C@@H](NC(=O)c1cc(=O)[nH]c(C2CC2)n1)c1ccc(SC(F)(F)F)c(F)c1 [Example 244, 2-cyclopropyl-N-[(1R)-1-{3-fluoro-4-[(trifluoromethyl)sulfanyl]phenyl}-2-methylpropyl]-6-oxo-1,6-dihydropyrimidine-4-carboxamide]
1.4 nM | – | 1.3 nM | 1.3 nM | CC(C)[C@@H](NC(=O)c1cc(=O)[nH]c(-c2ncccn2)n1)c1ccc(SC(F)(F)F)c(F)c1 [Example 245, N-[(1R)-1-{3-fluoro-4-[(trifluoromethyl)sulfanyl]phenyl}-2-methylpropyl]-6-oxo-1,6-dihydro-2,2′-bipyrimidine-4-carboxamide]
3.1 nM | – | 5.4 nM | 5.2 nM | CC[C@@H](NC(=O)c1cc(=O)[nH]c(C2CC2)n1)c1ccc(SC(F)(F)F)c(F)c1 [Example 246, 2-cyclopropyl-N-[(1R)-1-{3-fluoro-4-[(trifluoromethyl)sulfanyl]phenyl}propyl]-6-oxo-1,6-dihydropyrimidine-4-carboxamide]
1.7 nM | – | 2.5 nM | 2.7 nM | CC(C)[C@@H](NC(=O)c1cc(=O)[nH]c(C2CC2)n1)c1ccc(S(F)(F)(F)(F)F)cc1 [Example 247, 2-cyclopropyl-N-{(1R)-2-methyl-1-[4-(pentafluoro-λ^6-sulfanyl)phenyl]propyl}-6-oxo-1,6-dihydropyrimidine-4-carboxamide]
2 nM | – | 3.4 nM | 3.5 nM | CC(C)[C@@H](NC(=O)c1cc(=O)[nH]c(-c2ncccn2)n1)c1ccc(C(F)(F)F)c(F)c1 [Example 248, N-{(1R)-1-[3-fluoro-4-(trifluoromethyl)phenyl]-2-methylpropyl}-6-oxo-1,6-dihydro-2,2′-bipyrimidine-4-carboxamide]
2 nM | – | 4.3 nM | 4.1 nM | Cc1nc(C(=O)N[C@@H](c2ccc(C(F)(F)F)cc2)C(C)(C)C)cc(=O)[nH]1 [Example 249, N-{(1R)-2,2-dimethyl-1-[4-(trifluoromethyl)phenyl]propyl}-2-methyl-6-oxo-1,6-dihydropyrimidine-4-carboxamide]
5.3 nM | – | 5.4 nM | 6.3 nM | C[C@@H](NC(=O)c1cc(=O)[nH]c(-c2ncccn2)n1)c1ccc(C2CC2)cc1 [Example 250, N-[(1R)-1-(4-cyclopropylphenyl)ethyl]-6-oxo-1,6-dihydro-2,2′-bipyrimidine-4-carboxamide]
2 nM | – | 4 nM | 3.6 nM | CC(C)[C@@H](NC(=O)c1cc(=O)[nH]c(C2CC2)n1)c1ccc(C(F)(F)F)c(F)c1 [Example 251, 2-cyclopropyl-N-{(1R)-1-[3-fluoro-4-(trifluoromethyl)phenyl]-2-methylpropyl}-6-oxo-1,6-dihydropyrimidine-4-carboxamide]
8.7 nM | ~13 nM | 14 nM | 20 nM | O=C(NC1(c2ccc(SC(F)(F)F)c(F)c2)CC1)c1cc(=O)[nH]c(C2CC2)n1 [Example 252, 2-cyclopropyl-N-(1-{3-fluoro-4-[(trifluoromethyl)sulfanyl]phenyl}cyclopropyl)-6-oxo-1,6-dihydropyrimidine-4-carboxamide]
14 nM | 17 nM | – | – | O=C(NC1(c2ccc(SC(F)(F)F)c(F)c2)CC1)c1cc(=O)[nH]c(-c2ncccn2)n1 [Example 253, N-(1-{3-fluoro-4-[(trifluoromethyl)sulfanyl]phenyl}cyclopropyl)-6-oxo-1,6-dihydro-2,2′-bipyrimidine-4-carboxamide]
